Legend:
ACAT [1] = biological target: T1, ACAT (Rattus norvegicus, UniProt Q7TQM4); experiment: ACAT assay (in vitro); type: biochemical; settings: rat liver microsomes; for inhibition at 25 µM / inhibition at 10 µM: read-out: ACAT Inhibition Screen % Inhibition; for IC50: pH 7.4, 37° C., 10 μM acyl CoA, read-out: ACAT Inhibition Screen IC50
T1 construct: Rat liver microsomes are used as the source of ACAT; from tissue; host or cells: rat liver microsomes
T1 sequence (Q7TQM4 1-524): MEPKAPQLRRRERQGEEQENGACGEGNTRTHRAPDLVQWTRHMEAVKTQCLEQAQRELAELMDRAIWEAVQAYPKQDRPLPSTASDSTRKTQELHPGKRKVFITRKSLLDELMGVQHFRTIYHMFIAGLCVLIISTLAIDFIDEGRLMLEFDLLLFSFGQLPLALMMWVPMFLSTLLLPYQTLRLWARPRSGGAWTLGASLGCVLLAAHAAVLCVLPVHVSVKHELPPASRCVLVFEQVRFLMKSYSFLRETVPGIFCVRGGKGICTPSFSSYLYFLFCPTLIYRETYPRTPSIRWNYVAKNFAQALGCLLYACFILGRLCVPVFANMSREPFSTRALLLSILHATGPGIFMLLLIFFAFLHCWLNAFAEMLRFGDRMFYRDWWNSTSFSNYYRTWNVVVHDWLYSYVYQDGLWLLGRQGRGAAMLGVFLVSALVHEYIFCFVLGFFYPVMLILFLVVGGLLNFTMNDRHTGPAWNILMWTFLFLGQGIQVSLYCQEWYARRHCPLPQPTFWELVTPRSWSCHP
Method: The in vitro activity of compounds of formula I or Ia can be determined by the following procedure.
This assay measures the activity of ACAT by measuring the ACAT-mediated transfer of tritiated oleic acid from acyl-CoA to cholesterol to give labelled cholesterol oleate. Rat liver microsomes are used as the source of ACAT. Assays are performed in round bottom microtiterplates using a total incubation volume of 50μL. Each incubation well receives 10 μL assay buffer (0.5M KHPO4, 10 μM dithiothreitol, pH 7.4), 7.5 μL of 40 mg/mL BSA (Bovine Serum Albumin) and 12.5 μg of microsomal protein. The test compound (in sufficient amount to bring the final concentration to from 0.1 to 25 μM), reference compound, or vehicle control is added and the final volume brought to 47 μL. The microtiterplate is then floated on the surface of a 37° C. water bath for fifteen minutes. Incubations are started by the addition of 3 μL ^3 H-acyl CoA (1 μCi/well, final concentration of 10 μM acyl CoA). The plate is then returned to the water bath for 15 minutes. The incubations are then terminated by application of 15 μL from each incubation to individual lanes on a thin layer plate (Silica Gel GF 20×20 cm). Standards are applied to several lanes so that the cholesterol ester band can be identified. After drying, the plates are eluted with 90:10:1 petroleum ether:diethyl ether:acetic acid. The standards are visualized via iodine vapor, and the regions corresponding to cholesterol ester are scraped into 7 mL scintillation vials. 4 mL of scintillant are added to each vial, and the radioactivity quantified. Background count is determined by the boiled controls. Full activity is determined by activity in the presence of vehicle. The percent inhibition is calculated by subtracting the background from both control and test samples, and the test value is calculated as a percentage of the control. For IC50 determinations, the inhibition is plotted against drug doses on a log scale and the concentration at which 50% inhibiting is obtained is determined.

ACAT [2] = biological target: T1, ACAT; experiment: ACAT assay (in vitro); type: biochemical; settings: rat liver microsomes, read-out: ACAT Inhibition Screen % Inhibition

inhibition at 25 µM (ACAT [1]) [%]	IC50 (ACAT [1]) [µM]	Compound	further results
4	–	CCCCCCCC/C=C\CCCCCCCC(=O)N1CCc2cc(C)c(OC)cc2C1CCc1ccc(Cl)cc1 (centres unmarked)	–
91	–	CCCCCCCC/C=C\CCCCCCCC(=O)N1CCc2cc(OC)c(OC)cc2C1Cc1ccc(OC)c(OC)c1 (centres unmarked)	–
63	–	CCCCCCCC/C=C\CCCCCCCC(=O)N1CCc2cc(OC)c(OC)cc2C1Cc1ccccc1 (centres unmarked)	–
–	8	CCCCCCCC/C=C/CCCCCCCC(=O)N1CCc2cc(OC)c(OC)cc2C1c1ccccc1 (centres unmarked)	inhibition at 10 µM (ACAT [1]): 87%
–	–	CCCCCCCC/C=C\CCCCCCCC(=O)N1CCc2cc(OC)c(OC)cc2C1c1ccccc1 (centres unmarked) [N-(6,7-dimethoxy-1-phenyl-1,2,3,4-tetrahydroisoquinoline)-9-Z-octadecenamid]	inhibition at 10 µM (ACAT [1]): 66%
–	–	CCCCCCCC/C=C\CCCCCCCC(=O)N1CCc2ccccc2C1c1cc(Cl)ccc1NC (centres unmarked) [N-[1-(2-methylamino-5-chlorophenyl)-1,2,3,4-tetrahydroisoquinoline]-9-Z-octadecenamide]	inhibition at 10 µM (ACAT [1]): 10%
67	–	CCCCCCCC/C=C\CCCCCCCC(=O)N1Cc2cc(OC)c(OC)cc2CC1c1ccc(OC)c(OC)c1 (centres unmarked) [N-[6,7-dimethoxy-3-(3,4-dimethoxyphenyl)-1,2,3,4-tetrahydroisoquinoline]-9-Z-octadecenamide]	–
81	–	CCCCCCCC/C=C\CCCCCCCC(=O)N1CCc2ccccc2C1Cc1ccccc1 (centres unmarked) [R3=C6H5CH2, R4=H, R5=H, R2a=H, R2b=H]	–
73	–	CCCCCCCC/C=C\CCCCCCCC(=O)N1CCc2cc(O)c(O)cc2C1Cc1ccccc1 (centres unmarked) [R3=C6H5CH2, R4=H, R5=H, R2a=OH, R2b=OH, N-(1-benzyl-6,7-dihydroxy-1,2,3,4-tetrahydroisoquinoline)-9-Z-octadecenamide]	–
86	–	CCCCCCCC/C=C\CCCCCCCC(=O)N1Cc2cc(OC)c(OC)cc2CC1c1ccccc1 (centres unmarked) [R3=H, R4=C6H5, R5=H, R2a=CH3O, R2b=CH3O, N-(6,7-dimethoxy-3-phenyl1,2,3,4-tetrahydroisoquinoline)-9-Z-octadecenamide]	–
83	2.4	CCCCCCCC/C=C\CCCCCCCC(=O)N1Cc2cc(OC)c(OC)cc2C(c2ccccc2)C1 (centres unmarked) [R3=H, R4=H, R5=C6H5, R2a=CH3O, R2b=CH3O, N-(6,7-dimethoxy-4-phenyl-1,2,3,4-tetrahydroisoquinoline)-9-Z-octadecenamid]	–
100	0.74	CCCCCCCC/C=C\CCCCCCCC(=O)N1CCc2cc(OC)c(OC)cc2C1 [R3=H, R4=H, R5=H, R2a=CH3O, R2b=CH3O]	–
–	12	CCCCCCCC/C=C\CCCCCCCC(=O)N1CCc2ccccc2C1 [R3=H, R4=H, R5=H, R2a=H, R2b=H]	inhibition at 100 µM (ACAT [2]): 83%

From US5238935A, “N-acyl-tetrahydroisoquinolines as inhibitors of acyl-coenzyme A: cholesterol acyl transferase” (Schering Corporation, priority 1992, dated 1993)
